Reference: ChEMBL document CHEMBL1134632, “Long lasting antinociceptive properties of enkephalin degrading enzyme (NEP and APN) inhibitor prodrugs” (J Med Chem, 2001)
pKi: −log10 of the molar value.

Target: Neprilysin (Homo sapiens, UniProt P08473)
Test: Compound was evaluated for inhibition of enkephalin degrading enzyme, neutral endopeptidase (NEP)

Sequence of Neprilysin (P08473 whole entry): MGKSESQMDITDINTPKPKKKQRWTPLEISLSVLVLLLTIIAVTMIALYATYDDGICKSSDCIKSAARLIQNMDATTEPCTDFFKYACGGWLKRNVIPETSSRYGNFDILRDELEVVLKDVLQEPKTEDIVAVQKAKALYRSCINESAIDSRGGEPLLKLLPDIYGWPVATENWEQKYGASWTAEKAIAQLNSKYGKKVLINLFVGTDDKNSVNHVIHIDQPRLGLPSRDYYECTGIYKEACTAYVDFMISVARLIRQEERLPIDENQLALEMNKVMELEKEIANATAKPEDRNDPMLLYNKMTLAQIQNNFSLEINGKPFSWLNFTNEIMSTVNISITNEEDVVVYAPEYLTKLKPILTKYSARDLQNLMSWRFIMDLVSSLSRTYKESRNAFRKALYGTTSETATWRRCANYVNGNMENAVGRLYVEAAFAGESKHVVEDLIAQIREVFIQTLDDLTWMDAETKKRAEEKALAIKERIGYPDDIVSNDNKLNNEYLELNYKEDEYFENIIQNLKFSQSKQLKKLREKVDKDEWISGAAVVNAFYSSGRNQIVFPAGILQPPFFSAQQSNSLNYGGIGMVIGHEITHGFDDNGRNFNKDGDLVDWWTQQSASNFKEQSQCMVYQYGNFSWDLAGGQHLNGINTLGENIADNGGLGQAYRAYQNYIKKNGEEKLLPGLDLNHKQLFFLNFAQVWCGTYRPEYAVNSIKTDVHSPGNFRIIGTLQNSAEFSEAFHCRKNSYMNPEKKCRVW

pKi: 8.70
Structure (SMILES): CSCC[C@H](N)CSSC[C@@H](Cc1ccccc1)C(=O)NC(Cc1ccccc1)C(=O)OCc1ccccc1 (stereo partly specified)
